As usually defined, the IC50 is the concentration that inhibits the measured activity by half. The term viability, T/C denotes the ratio of treated to control.

This is an account of results in PubChem BioAssay AID1963422 (Molecular Pharmacology Branch, DTP, NCI, 2024).

The subject of the test is 463943-066-T-J2-PDC complex spheroid growth. Kind of test: Anticancer human tumor 463943-066-T-J2-PDC patient-derived colon adenocarcinoma cell line growth inhibition [Asc]. The conditions noted are these: for viability, T/C: stronger effect = lower value. The method, boiled down: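 Complex solid-tumor spheroids incorporating human endothelial and mesenchymal stem cells received single agents or combinations over half-log dilution ranges anchored to clinical Cmax.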

Where [1] appears, read: curve of first compound, second compound 0.0316 µM.
The mark [2] stands for this setting: curve of first compound, second compound 0.1 µM.
Setting [3] is: curve of first compound, second compound 0.316 µM.
[4] abbreviates: curve of first compound, second compound 1 µM.
Setting [5] is: curve of first compound, second compound 3.16 µM.
Where [6] appears, read: curve of first compound, second compound 10 µM.

“And” between values parts separate entries of the source, which are not always exact repeats. Equal values may be shown once. Some results are limits rather than exact numbers.
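Also: compound exposure lasted 7 days.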
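For viability, T/C in this document: 100% = DMSO vehicle control wells.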

Take `CCN1C(C(=O)NC23CCC(C(=O)O)(CC2)CC3)C(c2cccc(Cl)c2F)C2(C(=O)Nc3cc(Cl)ccc32)C12CCCCC2` (stereo not given) + Cc1c(S(C)(=O)=O)c(-c2cc(F)cc(N3CCN(c4ccc(NS(=O)(=O)c5ccc(NC(CCN6CCC(C(=O)OCCCP(=O)(O)O)CC6)CSc6ccccc6)c(S(=O)(=O)C(F)(F)F)c5)cc4)CC3)c2)c(-c2ccc(Cl)cc2)n1C(C)C: the IC50 runs as follows: under setting [1], greater than 3000 nM; under setting [2], greater than 3000 nM; under setting [3], greater than 3000 nM; under setting [4], greater than 3000 nM; under setting [5], 140 nM; under setting [6], less than 9.49 nM. Besides, the viability, T/C is, setting by setting: (second compound 0.0316 µM, first compound 0.00949 µM) 90.4%; (second compound 0.0316 µM, first compound 0.03 µM) 92.3%; (second compound 0.0316 µM, first compound 0.0949 µM) 89.3%; (second compound 0.0316 µM, first compound 0.3 µM) 76.5%; (second compound 0.0316 µM, first compound 0.949 µM) 70.2%; (second compound 0.0316 µM, first compound 3 µM) 61.8%. Besides, the viability, T/C is, setting by setting: (second compound 0.1 µM, first compound 0.00949 µM) 88.9%; (second compound 0.1 µM, first compound 0.03 µM) 83.2%; (second compound 0.1 µM, first compound 0.0949 µM) 85.9%; (second compound 0.1 µM, first compound 0.3 µM) 73.3%; (second compound 0.1 µM, first compound 0.949 µM) 71.1%; (second compound 0.1 µM, first compound 3 µM) 60.8%. Further, the viability, T/C (second compound 0.316 µM, first compound 0.00949 µM) is 80.6%; the viability, T/C (second compound 0.316 µM, first compound 0.03 µM) was 92.2%; the viability, T/C (second compound 0.316 µM, first compound 0.0949 µM) was 77.6%; the viability, T/C (second compound 0.316 µM, first compound 0.3 µM) is 71.4%; the viability, T/C (second compound 0.316 µM, first compound 0.949 µM) was 64.7%; the viability, T/C (second compound 0.316 µM, first compound 3 µM) was 57.2%. For the same compound, the viability, T/C (second compound 1 µM, first compound 0.00949 µM) is 70.1%; the viability, T/C (second compound 1 µM, first compound 0.03 µM) was 70.8%; the viability, T/C (second compound 1 µM, first compound 0.0949 µM) was 62.9%; the viability, T/C (second compound 1 µM, first compound 0.3 µM) is 58.4%; the viability, T/C (second compound 1 µM, first compound 0.949 µM) is 62%; the viability, T/C (second compound 1 µM, first compound 3 µM) was 51.2%. Moreover, the viability, T/C is, setting by setting: (second compound 3.16 µM, first compound 0.00949 µM) 55.8%; (second compound 3.16 µM, first compound 0.03 µM) 54.5%; (second compound 3.16 µM, first compound 0.0949 µM) 49.3%; (second compound 3.16 µM, first compound 0.3 µM) 48.2%; (second compound 3.16 µM, first compound 0.949 µM) 45.5%; (second compound 3.16 µM, first compound 3 µM) 39.4%. Further, the viability, T/C reads like this: (second compound 10 µM, first compound 0.00949 µM) 46.7%; (second compound 10 µM, first compound 0.03 µM) 43.7%; (second compound 10 µM, first compound 0.0949 µM) 39.8%; (second compound 10 µM, first compound 0.3 µM) 34.8%; (second compound 10 µM, first compound 0.949 µM) 61.4%; (second compound 10 µM, first compound 3 µM) 34.5%.

Regarding `Cn1ncnc1[C@H]1c2n[nH]c(=O)c3cc(F)cc(c23)N[C@@H]1c1ccc(F)cc1`, the viability, T/C (compound 0.000316 µM) is 98.9% and 88% and 106%; the viability, T/C (compound 0.001 µM) is 91.2% and 98.6% and 99.5%; the viability, T/C (compound 0.00316 µM) was 103% and 107% and 104%; the viability, T/C (compound 0.01 µM) was 96.4% and 102% (2×); the viability, T/C (compound 0.0316 µM) is 102% and 103% (2×); the viability, T/C (compound 0.1 µM) is 99.3% and 97.9% and 94%. In addition, for the setting “curve of compound”, the IC50 was greater than 100 nM.

For the compound `O=C(c1ccc(F)c(F)c1Nc1ccc(I)cc1F)N1CC(O)([C@@H]2CCCCN2)C1`, the viability, T/C (compound 0.00316 µM) was 88.3% and 95.1% and 104%; the viability, T/C (compound 0.01 µM) is 79.2% and 78% (2×); the viability, T/C (compound 0.0316 µM) is 71.1% and 60.7% and 77.5%; the viability, T/C (compound 0.1 µM) was 57.1% and 58.9% and 75.6%; the viability, T/C (compound 0.316 µM) was 39.7% and 42% and 51.9%; the viability, T/C (compound 1 µM) is 29% and 29.9% and 35.8%. Further, the IC50 (curve of compound) was 159 nM and 140 nM and 397 nM.

On to `O=C(c1ccc(F)c(F)c1Nc1ccc(I)cc1F)N1CC(O)([C@@H]2CCCCN2)C1` + Cc1c(S(C)(=O)=O)c(-c2cc(F)cc(N3CCN(c4ccc(NS(=O)(=O)c5ccc(NC(CCN6CCC(C(=O)OCCCP(=O)(O)O)CC6)CSc6ccccc6)c(S(=O)(=O)C(F)(F)F)c5)cc4)CC3)c2)c(-c2ccc(Cl)cc2)n1C(C)C, for which the IC50 was 95.2 nM under setting [1]; 111 nM under setting [2]; 55.9 nM under setting [3]; 26.8 nM under setting [4]; 9.46 nM under setting [5]; less than 3.16 nM under setting [6]. Further, the viability, T/C (second compound 0.0316 µM, first compound 0.00316 µM) was 92%; the viability, T/C (second compound 0.0316 µM, first compound 0.01 µM) was 80.6%; the viability, T/C (second compound 0.0316 µM, first compound 0.0316 µM) was 61.6%; the viability, T/C (second compound 0.0316 µM, first compound 0.1 µM) was 52.2%; the viability, T/C (second compound 0.0316 µM, first compound 0.316 µM) is 35.1%; the viability, T/C (second compound 0.0316 µM, first compound 1 µM) was 28.1%. Further, the viability, T/C (second compound 0.1 µM, first compound 0.00316 µM) was 88.2%; the viability, T/C (second compound 0.1 µM, first compound 0.01 µM) was 76.3%; the viability, T/C (second compound 0.1 µM, first compound 0.0316 µM) is 64.6%; the viability, T/C (second compound 0.1 µM, first compound 0.1 µM) was 50.5%; the viability, T/C (second compound 0.1 µM, first compound 0.316 µM) was 38.7%; the viability, T/C (second compound 0.1 µM, first compound 1 µM) was 24.4%. In addition, the viability, T/C reads like this: (second compound 0.316 µM, first compound 0.00316 µM) 85.7%; (second compound 0.316 µM, first compound 0.01 µM) 77.8%; (second compound 0.316 µM, first compound 0.0316 µM) 51.2%; (second compound 0.316 µM, first compound 0.1 µM) 45.2%; (second compound 0.316 µM, first compound 0.316 µM) 34.3%; (second compound 0.316 µM, first compound 1 µM) 24.8%. Also, the viability, T/C reads like this: (second compound 1 µM, first compound 0.00316 µM) 73.4%; (second compound 1 µM, first compound 0.01 µM) 61.6%; (second compound 1 µM, first compound 0.0316 µM) 47.1%; (second compound 1 µM, first compound 0.1 µM) 36.7%; (second compound 1 µM, first compound 0.316 µM) 29.5%; (second compound 1 µM, first compound 1 µM) 20%. Further, the viability, T/C is 55.3% (second compound 3.16 µM, first compound 0.00316 µM); 51.8% (second compound 3.16 µM, first compound 0.01 µM); 38.6% (second compound 3.16 µM, first compound 0.0316 µM); 33.8% (second compound 3.16 µM, first compound 0.1 µM); 22.6% (second compound 3.16 µM, first compound 0.316 µM); 16.6% (second compound 3.16 µM, first compound 1 µM). The viability, T/C (second compound 10 µM, first compound 0.00316 µM) is 43.1%; the viability, T/C (second compound 10 µM, first compound 0.01 µM) is 41.1%; the viability, T/C (second compound 10 µM, first compound 0.0316 µM) is 34%; the viability, T/C (second compound 10 µM, first compound 0.1 µM) was 25.9%; the viability, T/C (second compound 10 µM, first compound 0.316 µM) is 16.7%; the viability, T/C (second compound 10 µM, first compound 1 µM) was 12.3%.

As to `CCN1CCN(Cc2ccc(Nc3ncc(F)c(-c4cc(F)c5nc(C)n(C(C)C)c5c4)n3)nc2)CC1`, the viability, T/C is 102% and 101% and 107% (compound 0.00316 µM); 99.4% and 93.9% and 78.5% (compound 0.01 µM); 100% and 108% and 97.6% (compound 0.0316 µM); 98.9% and 96% and 104% (compound 0.1 µM); 113% and 108% and 115% (compound 0.316 µM); 119% and 120% and 125% (compound 1 µM). Besides, the IC50 (curve of compound) is greater than 1000 nM.
